Measurements: US9586931B2 (Merck Sharp & Dohme Corp., priority 2012, dated 2017)
pIC50: −log10 of the molar value. Several values for one entry are separate records, joined by “and”; a condition that tells them apart may be missing. Identical values can stand only once.

Each compound was assayed against T1, recombinant human GST-Syk (Homo sapiens, UniProt P43405) (assay: Homogeneous Time-Resolved Fluorescence (HTRF) assay for the recombinant human Syk enzyme). Settings: recombinant human GST-Syk 5 pM, ATP 25 μM, 10-dose titration 10 μM to 0.508 nM; read-out: rhSYK Activity IC50.
T1 construct: purchased Carna Biosciences 08-176
Format: biochemical
Procedure, shortened: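 Detection used time-resolved fluorescence 30 min after adding a quench mix (40 mM EDTA, 15 mM Tris pH 7.5, 0.01% Tween 20) containing 2 nM Europium anti-pTyr antibody and 70 nM streptavidin-APC. This followed 45 min of room-temperature peptide phosphorylation by recombinant GST-tagged human Syk.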
Compound Cc1cc(Nc2cc(C(F)(F)F)ccn2)nc(-c2cn(CC(=O)N3CCC(C(=O)O)CC3)nn2)c1 (racemic) [Example 5.80, 1-{[4-(4-methyl-6-{[4-(trifluoromethyl)pyridin-2-yl]amino}pyridin-2-yl)-1H-1,2,3-triazol-1-yl]acetyl}piperidine-4-carboxylic acid] has a pIC50 of 7.61.
Compound Cc1cc(Nc2cc(C(F)(F)F)ccn2)nc(-c2cn(C/C=C/C(N)=O)nn2)c1 [Example 1.26, (2E)-4-[4-(4-methyl-6-{[4-(trifluoromethyl)pyridin-2-yl]amino}pyridin-2-yl)-1H-1,2,3-triazol-1-yl]but-2-enamide] has a pIC50 of 5.96.
In the case of Cc1cc(Nc2cc(C(F)(F)F)ccn2)nc(-c2cn(C[C@@H](O)C(=O)O)nn2)c1 [Example 4.20, (2R)-2-hydroxy-3-[4-(4-methyl-6-{[4-(trifluoromethyl)pyridin-2-yl]amino}pyridin-2-yl)-1H-1,2,3-triazol-1-yl]propanoic acid], the pIC50 was 7.77.
Work on Cc1cc(Nc2nccc(C(F)F)n2)cc(-c2cn(CC(C)(O)C(C)(C)O)nn2)c1 (stereo not shown) [Example 21.25, 1-[4-(3-{[4-(difluoromethyl)pyrimidin-2-yl]amino}-5-methylphenyl)-1H-1,2,3-triazol-1-yl]-2,3-dimethylbutane-2,3-diol] yielded a pIC50 of 7.87.
Cc1cc(Nc2cc(C(F)(F)F)ccn2)nc(-c2cn(CC(O)CN)nn2)c1 (stereo not shown) [Example 4.22, 1-amino-3-[4-(4-methyl-6-{[4-(trifluoromethyl)pyridin-2-yl]amino}pyridin-2-yl)-1H-1,2,3-triazol-1-yl]propan-2-ol] gave a pIC50 of 8.52.
Compound COC(=O)C1CCC(n2cc(-c3cc(C)cc(Nc4nccc(C(F)(F)F)n4)c3)nn2)CC1 (mixture of isomers) [Example 5.99, methyl 4-[4-(3-methyl-5-{[4-(trifluoromethyl)pyrimidin-2-yl]amino}phenyl)-1H-1,2,3-triazol-1-yl]cyclohexane-carboxylate] has a pIC50 of 6.37.
Cc1cc(Nc2cc(C(F)(F)F)ccn2)nc(-c2cn(C3CCCCC3O)nn2)c1 (racemic) [Example 5.89, 2-[4-(4-methyl-6-{[4-(trifluoromethyl)pyridin-2-yl]amino}pyridin-2-yl)-1H-1,2,3-triazol-1-yl]cyclohexanol] was tested, and the pIC50 was 8.40.
For Cc1cc(Nc2nccc(C(F)(F)F)n2)cc(-c2cn(C[C@H](O)CO)nn2)c1 [Example 5.24, (2S)-3-[4-(3-methyl-5-{[4-(trifluoromethyl)pyrimidin-2-yl]amino}phenyl)-1H-1,2,3-triazol-1-yl]propane-1,2-diol], the pIC50 was 7.61.
Cc1cc(Nc2cc(C(F)(F)F)ccn2)nc(-c2cn(C3CCC(C(=O)O)CC3)nn2)c1 (mixture of isomers) [Example 5.46, 4-[4-(4-methyl-6-{[4-(trifluoromethyl)pyridin-2-yl]amino}pyridin-2-yl)-1H-1,2,3-triazol-1-yl]cyclohexane-carboxylic acid] showed a pIC50 of 8.31.
Cc1cc(Nc2cc(C(F)(F)F)ccn2)nc(-c2cn(CC(O)c3ccc(C(=O)O)cc3)nn2)c1 (stereo not shown) [Example 3.18, 4-{1-hydroxy-2-[4-(4-methyl-6-{[4-(trifluoromethyl)pyridin-2-yl]amino}pyridin-2-yl)-1H-1,2,3-triazol-1-yl]ethyl}benzoic acid] gave a pIC50 of 8.72.
Cc1cc(Nc2nccc(C(F)(F)F)n2)cc(-c2cn(C(C)C(O)CC#N)nn2)c1 (single isomer, unassigned) [Example 4.9, 3-hydroxy-4-[4-(3-methyl-5-{[4-(trifluoromethyl)pyrimidin-2-yl]amino}phenyl)-1H-1,2,3-triazol-1-yl]pentanenitrile] showed a pIC50 of 7.60.
For Cc1cc(Nc2cc(C(F)(F)F)ccn2)nc(-c2cn([C@H](C)C(=O)NCC(=O)O)nn2)c1 [Example 3.14, N-{(2R)-2-[4-(4-methyl-6-{[4-(trifluoromethyl)pyridin-2-yl]amino}pyridin-2-yl)-1H-1,2,3-triazol-1-yl]propanoyl}glycine], the pIC50 was 8.02.
CCC(O)C(O)Cn1cc(-c2cc(C)cc(Nc3cc(C(F)(F)F)ccn3)n2)nn1 (stereo not shown) [Example 10.7, 1,4,5-trideoxy-1-[4-(4-methyl-6-{[4-(trifluoromethyl)pyridin-2-yl]amino}pyridin-2-yl)-1H-1,2,3-triazol-1-yl]pentitol] gave a pIC50 of 7.52.
Work on Cc1cc(Nc2nccc(C(F)(F)F)n2)cc(-n2ccnn2)c1 [Example 15.11, N-[3-methyl-5-(1H-1,2,3-triazol-1-yl)phenyl]-4-(trifluoromethyl)pyrimidin-2-amine] yielded a pIC50 of 6.99.
In the case of Cc1cc(Nc2cc(C(F)(F)F)ccn2)nc(-c2cn(C(C)C(=O)NCCc3ccccc3Oc3ccccc3)nn2)c1 (stereo not shown) [Example 1.42, 2-[4-(4-methyl-6-{[4-(trifluoromethyl)pyridin-2-yl]amino}pyridin-2-yl)-1H-1,2,3-triazol-1-yl]-N-[2-(2-phenoxyphenyl)ethyl]propanamide], the pIC50 was 6.04.
Cc1cc(Nc2nccc(C(F)(F)F)n2)cc(-c2cn(C(C)C(O)CC#N)nn2)c1 (single isomer, unassigned) [Example 4.7, 3-hydroxy-4-[4-(3-methyl-5-{[4-(trifluoromethyl)pyrimidin-2-yl]amino}phenyl)-1H-1,2,3-triazol-1-yl]pentanenitrile] was tested, and the pIC50 was 7.80.
Cc1cc(Nc2cc(C)c(Cl)cn2)nc(-c2cn(CC(C)(O)C(C)(C)O)nn2)c1 (stereo not shown) [Example 21.24, 1-(4-{6-[(5-chloro-4-methylpyridin-2-yl)amino]-4-methylpyridin-2-yl}-1H-1,2,3-triazol-1-yl)-2,3-dimethylbutane-2,3-diol] was tested, and the pIC50 was 7.50.
In the case of Cc1cc(Nc2nccc(C(F)(F)F)n2)cc(-c2cn(CCCN)nn2)c1 [Example 5.48, N-{3-[1-(3-aminopropyl)-1H-1,2,3-triazol-4-yl]-5-methylphenyl}-4-(trifluoromethyl)pyrimidin-2-amine], the pIC50 was 7.48.
With Cc1cc(Nc2nccc(C(F)(F)F)n2)cc(-c2cn(CC(N)=O)nn2)c1 [Example 5.79, 2-[4-(3-methyl-5-{[4-(trifluoromethyl)pyrimidin-2-yl]amino}phenyl)-1H-1,2,3-triazol-1-yl]acetamide] the pIC50 was 7.13 and 7.09.
Cc1cc(Nc2cc(C(F)(F)F)ccn2)nc(-c2cn(CC(C)(O)C(N)=O)nn2)c1 (stereo not shown) [Example 1.12, 2-hydroxy-2-methyl-3-[4-(4-methyl-6-{[4-(trifluoromethyl)pyridin-2-yl]amino}pyridin-2-yl)-1H-1,2,3-triazol-1-yl]propanamide] was tested, and the pIC50 was 8.31.
Cc1cc(Nc2nccc(C(F)(F)F)n2)cc(-c2nnc(CCC(=O)O)[nH]2)c1 [Example 20.1, 3-(5-(3-Methyl-5-((4-(trifluoromethyl)pyrimidin-2-yl)amino)phenyl)-4H-1,2,4-triazol-3-yl)propanoic acid] gave a pIC50 of 8.11.
With Cc1cc(Nc2nccc(C)n2)cc(-c2cn(C[C@](C)(O)CO)nn2)c1 (single isomer, unassigned) [Example 21.2, 2-methyl-3-(4-(3-methyl-5-((4-methylpyrimidin-2-yl)amino)phenyl)-1H-1,2,3-triazol-1-yl)propane-1,2-diol] the pIC50 was 8.70.
In the case of Cc1cc(Nc2cc(C(F)(F)F)ccn2)nc(-c2cn(C3CCC(C(=O)O)C(C)(C)C3)nn2)c1 (single isomer, unassigned) [Example 9.1, (R or S) 2,2-Dimethyl-4-[4-(4-methyl-6-{[4-(trifluoromethyl)pyridin-2-yl]amino}pyridin-2-yl)-1 H-1,2,3-triazol-1-yl]cyclohexanecarboxylic acid], the pIC50 was 8.43.
Cc1cc(Nc2nccc(C(F)F)n2)cc(-c2cn(CC3=CCC(=O)N=C3)nn2)c1 [Example 7.16, 5-((4-(3-((4-(difluoromethyl)pyrimidin-2-yl)amino)-5-methylphenyl)-1H-1,2,3-triazol-1-yl)methyl)pyridin-2(3H)-one] gave a pIC50 of 8.64.
Compound Cc1cc(Nc2cc(C(F)(F)F)ccn2)nc(-c2cn(C3CN(C(=O)C(C)O)CC3O)nn2)c1 (single isomer, unassigned) [Example 13.4, 1-[2-hydroxypropanoyl]-4-[4-(4-methyl-6-{[4-(trifluoromethyl)pyridin-2-yl]amino}pyridin-2-yl)-1H-1,2,3-triazol-1-yl]pyrrolidin-3-ol] has a pIC50 of 7.82.
For COC(=O)[C@@H]1CCCN1C(=O)[C@@H](C)n1cc(-c2cc(C)cc(Nc3cc(C(F)(F)F)ccn3)n2)nn1 [Example 1.55, methyl 1-{(2R)-2-[4-(4-methyl-6-{[4-(trifluoromethyl)pyridin-2-yl]amino}pyridin-2-yl)-1H-1,2,3-triazol-1-yl]propanoyl}prolinate], the pIC50 was 6.35.
Compound COC(=O)C(C)n1cc(-c2cc(C)cc(Nc3cc(C(F)(F)F)ccn3)n2)nn1 (stereo not shown) [Example 5.20, methyl 2-[4-(4-methyl-6-{[4-(trifluoromethyl)pyridin-2-yl]amino}pyridin-2-yl)-1H-1,2,3-thiazol-1-yl]propanoate] has a pIC50 of 7.62.
Cc1cc(Nc2nccc(C)n2)cc(-c2cn(CC(C)(O)C(C)(C)O)nn2)c1 (stereo not shown) [Example 21.21, 2,3-dimethyl-1-(4-{3-methyl-5-[(4-methylpyrimidin-2-yl)amino]phenyl}-1H-1,2,3-triazol-1-yl)butane-2,3-diol] was tested, and the pIC50 was 6.72.
Cc1cc(Nc2cc(C(F)(F)F)ccn2)nc(-c2cn(C[C@H](O)C(N)=O)nn2)c1 [Example 1.13, (2S)-2-hydroxy-3-[4-(4-methyl-6-{[4-(trifluoromethyl)pyridin-2-yl]amino}pyridin-2-yl)-1H-1,2,3-triazol-1-yl]propanamide] showed a pIC50 of 8.47.
For Cc1cc(Nc2cc(C(F)(F)F)ccn2)nc(-c2cn(CC3(O)CCOCC3)nn2)c1 [Example 4.13, 4-{[4-(4-methyl-6-{[4-(trifluoromethyl)pyridin-2-yl]amino}pyridin-2-yl)-1H-1,2,3-triazol-1-yl]methyl}tetrahydro-2H-pyran-4-ol], the pIC50 was 7.59.
For Cc1cc(Nc2nccc(C(F)(F)F)n2)cc(-c2nc[nH]n2)c1 [Example 2.14, N-[3-methyl-5-(1H-1,2,4-triazol-3-yl)phenyl]-4-(trifluoromethyl)pyrimidin-2-amine], the pIC50 was 6.55.
